# Where two headings read alike, the source gives them in different places.
# Assays:
# E. coli strain 35218 = assay: Checkerboard antibiotic MIC with Compound B; type: cell-based, Escherichia coli
# Method: (§1) Minimal inhibitory concentrations (MICs) were determined as previously described. […] MICs were determined by microdilution susceptibility testing in 96-well plates (by Nunc) using inocula of 10^5 bacteria per ml. Cell populations were evaluated by optical density measurements at 620 nm and were calibrated against a set of standards. Hundred (100) μl of a bacterial suspension were added to 100 μl of culture medium (control) or to 100 μl of culture medium containing various tested compound concentrations in 2-fold serial dilutions. Inhibition of proliferation was determined by optical density measurements at 620 nm after an incubation period of 24 hours at 37° C. Data were obtained from ≥2 independent experiments performed in duplicate.
# (§2) Shown in parentheses are calculated sensitization factor, defined as antibiotic's MICs ratio (in absence vs. presence of Compound B) at specified Compound B concentration.
# E. coli strain 14384 = assay: Checkerboard antibiotic MIC with Compound B; type: cell-based, Escherichia coli
# Method: as §1, §2
# E. coli strain 25922 = assay: Checkerboard antibiotic MIC with Compound B; type: cell-based, Escherichia coli
# Method: as §1, §2
# E. coli strain 14182 = assay: Checkerboard antibiotic MIC with Compound B; type: cell-based, Escherichia coli
# Method: as §1, §2
# E. coli strain 16327 = assay: Checkerboard antibiotic MIC with Compound B; type: cell-based, Escherichia coli
# Method: as §1, §2
# E. coli 25922 [1] = assay: Time-kill kinetics in broth versus plasma; type: cell-based, Escherichia coli
# Method: (§3) Time-kill kinetics data were determined using 100 μl of bacterial suspension (10^6 CFU/ml), which was added to […] LB containing none of or specified concentrations of the tested compound, antibiotic, and combinations thereof. After the specified exposure time points (37° C. under shaking), aliquots were formed, subjected to serial 10-fold dilutions in saline (0.85% NaCl), and plated for bacterial enumeration after additional 24 hours incubation at 37° C. Time-kill experiments in human and mouse plasma were performed as described elsewhere. The effects of drug delay were assessed in LB, except that bacteria were pre-incubated with the tested compound or antibiotic for the specified time points, centrifuged, and resuspended in fresh LB-containing antibiotic or the tested compound, respectively, and incubated for 3 hours before CFU enumeration.
# [2] = tested on: E. coli strains 25922, 35218, 14182, 16327, 14384; assay: MIC against the 5 listed E. coli strains of Table 2 (stated together); type: cell-based, Escherichia coli; conditions: absence of Compound B
# Method: as §1, §2
# [3] = Oral 20 mg/kg, published data, cited from earlier work
# Escherichia coli 25922 = assay: Mouse peritonitis-sepsis model; type: in vivo; conditions: neutropenic ICR mice; rifampin 20 mg/kg orally alone
# Method: A mouse peritonitis-sepsis model was created as described elsewhere. Infection was obtained after intraperitoneal injection of bacteria from a logarithmic-phase culture. Infected mice were treated subcutaneously. The doses were selected to allow comparison with the reference compound and to remain below the maximum tolerated dose after double-dose administration. […] Briefly, mouse peritonitis sepsis model for in vivo studies were performed using male ICR mice ([…]) obtained from Envigo Laboratories (Rehovot, Israel). […] Infection was obtained by intraperitoneal injection of a logarithmic phase culture of E. coli 25922 (1.3±0.2×10^6 CFU permouse in 0.3 ml PBS). […] Infection control mice were injected with the PBS vehicle. Mouse survival was monitored for up to 7 days after treatment. Statistical analyses were performed by paired Student's t test, at α=0.05.
# E. coli 25922 [4] = assay: Simultaneous versus delayed drug exposure assay in LB; type: cell-based, Escherichia coli
# Method: as §3
smiles,measurement,setting,value
"CO[C@H]1/C=C/O[C@@]2(C)Oc3c(C)c(O)c4c(O)c(c(/C=N/N5CCN(C)CC5)c(O)c4c3C2=O)NC(=O)/C(C)=C\C=C\[C@H](C)[C@H](O)[C@@H](C)[C@@H](O)[C@@H](C)[C@H](OC(C)=O)[C@@H]1C [Rifampin, rifampin]",Antibiotic MIC in the presence of Compound B,E. coli strain 35218; Compound B 0 μM,8 µg/mL
same,Antibiotic MIC in the presence of Compound B,E. coli strain 35218; Compound B 5 μM,0.016 µg/mL
same,Antibiotic MIC in the presence of Compound B,E. coli strain 35218; Compound B 10 μM,0.002 µg/mL
same,Antibiotic MIC in the presence of Compound B,E. coli strain 14384; Compound B 0 μM,8 µg/mL
same,Antibiotic MIC in the presence of Compound B,E. coli strain 14384; Compound B 2.5 μM,0.016 µg/mL
same,Antibiotic MIC in the presence of Compound B,E. coli strain 14384; Compound B 5 μM,0.008 µg/mL
same,Antibiotic MIC in the presence of Compound B,E. coli strain 14384; Compound B 10 μM,0.002 µg/mL
same,Antibiotic MIC in the presence of Compound B,E. coli strain 25922; Compound B 0 μM,8 to 16 µg/mL
same,Antibiotic MIC in the presence of Compound B,"E. coli strain 25922; Compound B 0 μM, listed as rifampin",16 µg/mL
same,Antibiotic MIC in the presence of Compound B,E. coli strain 25922; Compound B 2.5 μM,0.063 µg/mL
same,Antibiotic MIC in the presence of Compound B,E. coli strain 25922; Compound B 5 μM,0.004 µg/mL
same,Antibiotic MIC in the presence of Compound B,E. coli strain 25922; Compound B 10 μM,0.001 µg/mL
same,MIC,"E. coli strain 25922; Escherichia coli, read-out: rifampin's MIC value, in the presence of Compound B",0.001 µg/mL
same,Antibiotic MIC in the presence of Compound B,E. coli strain 14182; Compound B 0 μM,8 µg/mL
same,Antibiotic MIC in the presence of Compound B,E. coli strain 14182; Compound B 2.5 μM,0.031 µg/mL
same,Antibiotic MIC in the presence of Compound B,E. coli strain 14182; Compound B 5 μM,0.004 µg/mL
same,Antibiotic MIC in the presence of Compound B,E. coli strain 14182; Compound B 10 μM,0.002 µg/mL
same,Antibiotic MIC in the presence of Compound B,E. coli strain 16327; Compound B 0 μM,16 µg/mL
same,Antibiotic MIC in the presence of Compound B,E. coli strain 16327; Compound B 2.5 μM,0.031 µg/mL
same,Antibiotic MIC in the presence of Compound B,E. coli strain 16327; Compound B 5 μM,0.004 µg/mL
same,Antibiotic MIC in the presence of Compound B,E. coli strain 16327; Compound B 10 μM,0.002 µg/mL
same,reduction of bacterial survival,"E. coli 25922 [1]; LB broth, 24-hours end point, rifampin 1 μg/ml combined with Compound B 0.6 μM",more than 99%
same,reduction of CFU count,"E. coli 25922 [1]; human plasma, within 2 hours of exposure, rifampin 1 μg/ml with Compound B 0.6 μM",more than 3 log units
same,time to accomplish the CFU reduction (more than 3 log units),"E. coli 25922 [1]; human plasma, antibiotic with Compound B 0.6 μM",≤ 2 hours
same,combined action with Compound B,"E. coli 25922 [1]; mouse plasma, 24 hours end point, Compound B 10 μM with rifampin 1 μg/ml or erythromycin 3 μg/ml",expressed synergism of action
same,"antibiotic MICs in the absence of the compound, all the strains tested",[2],8 to 16 µg/mL
same,Plasma concentration,[3]; 0.5 h,6500 ± 4700 ng/mL
same,Plasma concentration,[3]; 1 h,10300 ± 400 ng/mL
same,Plasma concentration,[3]; 2 h,13200 ± 4400 ng/mL
same,survival rate of infected mice,Escherichia coli 25922,zero
same,reduction of CFU count,"E. coli 25922 [4]; 0.06 μg/ml rifampin in the presence of Compound B (10 μM), simultaneous, 3 hours in LB",~4 log units
same,effect of delayed exposure on sensitization by Compound B,"E. coli 25922 [4]; Compound B 10 μM with 0.06 μg/ml rifampin or 4 μg/ml erythromycin, LB",nearly abolished the sensitization effect

# Reference: patent US20200399308A1, “COMPOUNDS AND METHODS FOR ELICITING ANTIMICROBIAL ACTIVITY” (Technion Research & Development Foundation Limited, priority 2018, published 2020)
